{"source": "patent US20160128990A1", "about": "“METHODS OF USING RIFAXIMIN IN POSITION EMISSION TOMOGRAPHY (PET) SCANS” (Salix Pharmaceuticals, Ltd, priority 2013, published 2016)", "format_in_all_cases": "in vivo, human", "key": {"[1]": {"experiment": "Adverse events in the rifaximin-treated group (Example 1)", "details": "rifaximin 550 mg BID for two days, 30 patients", "experimental": "(§1) This example relates to a study to determine whether an oral antibiotic, rifaximin, administered prior to PET-CT scan can reduce physiologic FDG uptake in the intestinal tract. Thirty (30) patients scheduled for clinically-indicated PET-CT scans were enrolled to receive rifaximin 550 mg twice daily (BID) for two days prior to their scans. Each patient had their prior scheduled PET-CT used as control; that is, their prior PET-CT scan was evaluated as a pre-treatment baseline for intestinal FDG uptake (paired controls). The PET-CT scans of a randomly-selected cohort of 90 patients also scheduled for clinically-indicated PET-CT during the same time period were also used as controls (independent controls). All images were stripped of identifying data, and SUVMax (maximum-pixel-value standardized uptake value) and SUVAvg (average standardized uptake value) for all scans were measured by a radiologist blinded to treatment/control status and normalized to liver SUV, which was selected as the reference for normal tissue activity. A qualitative score of colonic uptake (0-4) was also assessed. Statistical analysis was performed by comparing mean SUV cecum/liver by paired t-test (pre & post) or unpaired t-test (treated & controls)."}, "[2]": {"system": "physiologic FDG uptake in the intestinal tract", "experiment": "PET-CT scan study of intestinal FDG uptake after rifaximin pre-treatment (Example 1)", "experimental": "as §1"}, "[3]": {"system": "physiologic FDG uptake in the intestinal tract", "experiment": "PET-CT scan studies of intestinal FDG uptake with other rifaximin regimens (Examples 2-6)", "experimental": "Patients scheduled for clinically-indicated PET-CT scan are administered rifaximin 550 mg twice daily (BID) for five days prior to their scans. Each patient has their prior scheduled PET-CT used as control; that is, their prior PET-CT scan is evaluated as a pre-treatment baseline for intestinal FDG uptake (paired controls). The PET-CT scans of a randomly-selected cohort of patients also scheduled for clinically-indicated PET-CT during the same time period are used as independent controls. Cecal SUVMax (maximum-pixel-value standardized uptake value) and SUVAvg (average standardized uptake value) for all scans are measured by a radiologist blinded to treatment/control status and normalized to liver SUV, which is selected as the reference for normal tissue activity. A qualitative score of colonic uptake (0-4) is also assessed. Statistical analysis was performed by comparing mean SUV cecum/liver by paired t-test (pre & post) or unpaired t-test (treated & controls). The effect of rifaximin on a global measure of colonic SUV is also measured. Patients scheduled for clinically-indicated PET-CT scan are administered rifaximin 550 mg twice daily (BID) for seven days prior to their scans. Each patient has their prior scheduled PET-CT used as control; that is, their prior PET-CT scan is evaluated as a pre-treatment baseline for intestinal FDG uptake (paired controls). The PET-CT scans of a randomly-selected cohort of patients also scheduled for clinically-indicated PET-CT during the same time period are used as independent controls. Cecal SUVMax (maximum-pixel-value standardized uptake value) and SUVAvg (average standardized uptake value) for all scans are measured by a radiologist blinded to treatment/control status and normalized to liver SUV, which is selected as the reference for normal tissue activity. A qualitative score of colonic uptake (0-4) is also assessed. Statistical analysis was performed by comparing mean SUV cecum/liver by paired t-test (pre & post) or unpaired t-test (treated & controls). The effect of rifaximin on a global measure of colonic SUV is also measured. Patients scheduled for clinically-indicated PET-CT scan are administered rifaximin 550 mg twice daily (BID) for between 48 hours to five days prior to their scans. Each patient has their prior scheduled PET-CT used as control; that is, their prior PET-CT scan is evaluated as a pre-treatment baseline for intestinal FDG uptake (paired controls). […] Cecal SUVMax (maximum-pixel-value standardized uptake value) and SUVAvg (average standardized uptake value) for all scans are measured by a radiologist blinded to treatment/control status and normalized to liver SUV, which is selected as the reference for normal tissue activity. A qualitative score of colonic uptake (0-4) is also assessed. […] The effect of rifaximin on a global measure of colonic SUV is also measured. […] Each patient has their prior scheduled PET-CT used as control; that is, their prior PET-CT scan is evaluated as a pre-treatment baseline for intestinal FDG uptake (paired controls). […] Cecal SUVMax (maximum-pixel-value standardized uptake value) and SUVAvg (average standardized uptake value) for all scans are measured by a radiologist blinded to treatment/control status and normalized to liver SUV, which is selected as the reference for normal tissue activity. A qualitative score of colonic uptake (0-4) is also assessed. […]"}}, "data": [{"smiles": "CO[C@H]1/C=C/O[C@@]2(C)Oc3c(C)c(O)c4c(O)c(c5c(nc6cc(C)ccn65)c4c3C2=O)NC(=O)/C(C)=C\\C=C\\[C@H](C)[C@H](O)[C@@H](C)[C@@H](O)[C@@H](C)[C@H](OC(C)=O)[C@@H]1C", "note": "[rifaximin, (2S,16Z,18E,20S,21S,22R, 23R,24R,25S,26S,27S,28E)-5,6,21,23,25 Pentahydroxy-27-methoxy-2,4,11,16,20,22,24,26-octamethyl-2,7-(epoxypentadeca-(1,11,13)trienimino)benzofuro(4,5-e)pyrido(1,2,-a)benzimidazole-1,15(2H)-dione,25-acetate]", "values": [{"measurement": "adverse events", "setting": "[1]", "value": "No adverse events were reported"}, {"measurement": "OR for overall colonic SUV score <1", "setting": "[2]", "value": 3.8}, {"measurement": "patients with no major change in cecal SUVmax/liver ratio after rifaximin", "setting": "[2]", "value": 14, "unit": "%"}, {"measurement": "scans with overall colonic SUV score <1", "setting": "[2]", "value": 53, "unit": "%"}, {"measurement": "difference (reduction) in cecal SUVmax / FDG activity in the cecum between pre- and post-rifaximin images", "setting": "[2]; 550 mg BID for two days, paired pre-rifaximin scans, p=0.002", "value": 26, "unit": "%"}, {"measurement": "mean cecal SUVMax in patients whose SUVMax was >2 in their prior scan", "setting": "[2]; 550 mg, 48 h", "value": 3.4}, {"measurement": "cecal SUVmax levels in patients with high baseline levels", "setting": "[2]; after 2 days of rifaximin pre-treatment", "value": "significantly lower levels"}, {"measurement": "patients with higher cecal SUVmax/liver ratio post-rifaximin", "setting": "[2]; patients (n=27) with cecal SUVmax/liver ratio >2 in pre-rifaximin scans, 2/27", "value": 7, "unit": "%"}, {"measurement": "patients with lower cecal SUVmax/liver ratio after rifaximin", "setting": "[2]; patients (n=27) with cecal SUVmax/liver ratio >2 in pre-rifaximin scans, 21/27, p=0.0005", "value": 78, "unit": "%"}, {"measurement": "patients with down-grading of FDG signal intensity (overall colonic SUV signal)", "setting": "[2]; patients with an initial high cecal SUVMax, FIG. 4", "value": 80, "unit": "%"}, {"measurement": "Normalized (mean) cecal SUVAvg", "setting": "[2]; post-rifaximin scan, 550 mg BID two days, 2.0 without rifaximin, p=0.02 paired t-test", "value": 1.6}, {"measurement": "Mean colon SUVmax", "setting": "[2]; post-rifaximin scan, 550 mg BID two days, pre-rifaximin 4.0, p=0.7", "value": 3.8}, {"measurement": "distribution of overall colonic SUV grades", "setting": "[2]; post-rifaximin scans, score 0-4 by blinded reader, FIG. 4", "value": "left-shift in the distribution of colonic SUV grades from higher to lower grades"}, {"measurement": "mean cecal SUVMax, rifaximin-treated patients vs random control scans", "setting": "[2]; random control scans mean 4.2, no significant difference, p=0.2 unpaired t-test", "value": 3.4}, {"measurement": "FDG uptake compared to pre-rifaximin scan", "setting": "[2]; rifaximin for 2 days prior to PET-CT scans", "value": "significant reduction"}, {"measurement": "qualitative score of whole colonic uptake (0-4), mean", "setting": "[2]; rifaximin pre-treated group, reduced from 2.3, p=0.07", "value": 1.8}, {"measurement": "overall percentage of patients with grade of colonic FDG intensity >1", "setting": "[2]; with rifaximin compared to without rifaximin, FIG. 4", "value": "lower"}, {"measurement": "FDG uptake compared to pre-rifaximin scan", "setting": "[3]; Example 2: 550 mg BID for five days prior to PET-CT scans", "value": "significant reduction"}, {"measurement": "FDG uptake compared to pre-rifaximin scan", "setting": "[3]; Example 3: 550 mg BID for seven days prior to PET-CT scans", "value": "significant reduction"}, {"measurement": "FDG uptake compared to pre-rifaximin scan", "setting": "[3]; Example 4: 550 mg BID for between 48 hours to 5 days prior to PET-CT scans", "value": "significant reduction"}, {"measurement": "FDG uptake compared to pre-rifaximin scan", "setting": "[3]; Example 5: 1100 mg per day for 48 hours to seven days prior to PET-CT scans", "value": "significant reduction"}, {"measurement": "FDG uptake compared to pre-rifaximin scan", "setting": "[3]; Example 6: solid dispersion with about 10 mg to about 100 mg rifaximin, once per day up to TID, 48 hours to seven days prior to PET-CT scans", "value": "significant reduction"}]}]}
